From patent US10730889B2, “Amido spirocyclic amide and sulfonamide derivatives” (Forma TM, LLC, priority 2012, dated 2020) come the findings set out here.

Like-named read-outs stand apart in the source and are kept apart here.

In the test the test system is A2780 cells. As to the kind of experiment: In-vitro cell proliferation assay (SRB, 72 hours). Format: cell-based. The following applies: A2780 cells, 72 hours, SRB, read-out: Cell Proliferation (IC50).

As for `O=C(NCC1CC12CCN(C(=O)c1ncc[nH]1)CC2)c1cc2ccncc2o1` (stereo not shown) [Example 338, N-[[6-(1H-imidazole-2-carbonyl)-6-azaspiro[2.5]octan-2-yl]methyl]furo[2,3-c]pyridine-2-carboxamide], where the note is “Homo sapiens, A2780, 72 h”, the IC50 stood at 2000 nM.
Regarding `CN1CCN(c2ccc(C(=O)N3CCC4(CC3)CC4CNC(=O)c3cc4ccncc4o3)cc2)CC1` (stereo not shown) [Example 339, N-[[6-[4-(4-Methylpiperazin-1-yl)benzoyl]-6-azaspiro[2.5]octan-2-yl]methyl]furo[2,3-c]pyridine-2-carboxamide], under “Homo sapiens, A2780, 72 h”, the IC50 amounted to 1.9 nM.
Take `O=C(NCC1CC12CCN(C(=O)c1cnc3[nH]cnc3c1)CC2)c1cc2ccncc2o1` (stereo not shown) [Example 340, N-[[6-(3H-imidazo[4,5-b]pyridine-6-carbonyl)-6-azaspiro[2.5]octan-2-yl]methyl]furo[2,3-c]pyridine-2-carboxamide]: the IC50 (Homo sapiens, A2780, 72 h) came out at 429 nM.
The same measure, in the same setting: the value for `Cc1ccc(C(=O)N2CCC3(CC2)CC3CNC(=O)c2cc3ccncc3o2)nc1` (stereo not shown) [Example 341, N-[[6-(5-methylpyridine-2-carbonyl)-6-azaspiro[2.5]octan-2-yl)methyl]furo[2,3-c]pyridine-2-carboxamide] was 717 nM.
As for `CN1CCN(Cc2ccc(C(=O)N3CCC4(CC3)CC4CNC(=O)c3cc4cnccc4[nH]3)cc2)CC1` (stereo not shown) [Example 343, N-[[6-[4-[(4-methylpiperazin-1-yl)methyl]benzoyl]-6-azaspiro[2.5]octan-2-yl]methyl]-1H-pyrrolo[3,2-c]pyridine-2-carboxamide], the IC50 (Homo sapiens, A2780, 72 h) turned out to be 42.5 nM.
In the case of `CN1CCN(Cc2cccc(C(=O)N3CCC4(CC3)CC4CNC(=O)c3cc4cnccc4[nH]3)c2)CC1` (stereo not shown) [Example 344, N-[[6-[3-[(4-methylpiperazin-1-yl)methyl]benzoyl]-6-azaspiro[2.5]octan-2-yl]methyl]-1H-pyrrolo[3,2-c]pyridine-2-carboxamide], the IC50 (Homo sapiens, A2780, 72 h) came out at 72 nM.
On to `CN(C)Cc1ccc(C(=O)N2CCC3(CC2)CC3CNC(=O)c2cc3cnccc3[nH]2)cc1` (stereo not shown) [Example 345, N-[[6-[4-[(dimethylamino)methyl]benzoyl]-6-azaspiro[2.5]octan-2-yl]methyl]-1H-pyrrolo[3,2-c]pyridine-2-carboxamide], for which the IC50 (Homo sapiens, A2780, 72 h) is 80.8 nM.
On the same count and under the same terms, the value for `CN1CCN(Cc2ccc(C(=O)N3CCC4(CC3)CC4CNC(=O)N3Cc4ccncc4C3)cc2)CC1` (stereo not shown) [Example 346, N-[[6-[4-[(4-methylpiperazin-1-yl)methyl]benzoyl]-6-azaspiro[2.5]octan-2-yl]methyl]-1,3-dihydropyrrolo[3,4-c]pyridine-2-carboxamide] was 6.01 nM.
Consider `CC1(C)CC1C(=O)N1CCC2(CC1)CC2CNC(=O)c1cc2cnccc2[nH]1` (stereo not shown) [Example 348, N-[[6-(2,2-dimethylcyclopropanecarbonyl)-6-azaspiro[2.5]octan-2-yl]methyl]-1H-pyrrolo[3,2-c]pyridine-2-carboxamide], for which the IC50 turned out to be 42.6 nM.
As for `CC(C)(CO)OC(=O)N1CCC2(CC1)CC2CNC(=O)N1Cc2ccncc2C1` (stereo not shown) [Example 351, (2-hydroxy-1,1-dimethyl-ethyl) 2-[(1,3-dihydropyrrolo[3,4-c]pyridine-2-carbonylamino)methyl]-6-azaspiro[2.5]octane-6-carboxylate], the IC50 (Homo sapiens, A2780, 72 h) is 3.56 nM.
Still for that read-out and setting: the value for `O=C(NCC1CC12CCN(C(=O)c1cc(C3CC3)n[nH]1)CC2)N1Cc2ccncc2C1` (stereo not shown) [Example 353, N-[[6-(3-cyclopropyl-1H-pyrazole-5-carbonyl)-6-azaspiro[2.5]octan-2-yl]methyl]-1,3-dihydropyrrolo[3,4-c]pyridine-2-carboxamide] was 7.55 nM.
Consider `Cn1cc(-c2ccno2)c(C(=O)N2CCC3(CC2)CC3CNC(=O)N2Cc3ccncc3C2)n1` (stereo not shown) [Example 354, N-[[6-(4-isoxazol-5-yl-1-methyl-pyrazole-3-carbonyl)-6-azaspiro[2.5]octan-2-yl]methyl]-1,3-dihydropyrrolo[3,4-c]pyridine-2-carboxamide], for which, under “Homo sapiens, A2780, 72 h”, the IC50 is 7.07 nM.
Same read-out and setting: the result for `CN1CCC(C)(CC(=O)N2CCC3(CC2)CC3CNC(=O)N2Cc3ccncc3C2)CC1` (stereo not shown) [Example 356, N-[[6-[2-(1,4-dimethyl-4-piperidyl)acetyl]-6-azaspiro[2.5]octan-2-yl]methyl]-1,3-dihydropyrrolo[3,4-c]pyridine-2-carboxamide] reads 7.62 nM; that for `N#Cc1ccccc1CC(=O)N1CCC2(CC1)CC2CNC(=O)N1Cc2ccncc2C1` (stereo not shown) [Example 357, N-[[6-[2-(2-cyanophenyl)acetyl]-6-azaspiro[2.5]octan-2-yl]methyl]-1,3-dihydropyrrolo[3,4-c]pyridine-2-carboxamide], 10.6 nM; that for `CC(=O)NCC(C)(C)OC(=O)N1CCC2(CC1)CC2CNC(=O)N1Cc2ccncc2C1` (stereo not shown) [Example 358, (2-acetamido-1,1-dimethyl-ethyl)2-[(1,3-dihydropyrrolo[3,4-c]pyridine-2-carbonylamino)methyl]-6-azaspiro[2.5]octane-6-carboxylate], 9.19 nM.
Consider `C=C/N=C\C1=CCN(C(=O)NCC2CC23CCN(C(=O)CCC(C)(C)O)CC3)C1` (stereo not shown) [Example 360, N-[[6-(4-hydroxy-4-methyl-pentanoyl)-6-azaspiro[2.5]octan-2-yl]methyl]-1,3-dihydropyrroIo[3,4-c]pyridine-2-carboxamide], for which the IC50 (Homo sapiens, A2780, 72 h) was 50.9 nM.
With `CC1(NC(=O)N2CCC3(CC2)CC3CNC(=O)N2Cc3ccncc3C2)COC1` (stereo not shown) [Example 361, N-[[6-[(3-methyloxetan-3-yl)carbamoyl]-6-azaspiro[2.5]octan-2-yl]methyl]-1,3-dihydropyrrolo[3,4-c]pyridine-2-carboxamide], the IC50 (Homo sapiens, A2780, 72 h) was 56.1 nM.
On the same count and under the same terms, the result for `CN1CCN(c2ccc(C(=O)N3CCC4(CC3)CC4CNC(=O)N3Cc4ccncc4C3)cc2)CC1` (stereo not shown) [Example 362, N-[[6-[4-(4-methylpiperazin-1-yl)benzoyl]-6-azaspiro[2.5]octan-2-yl]methyl]-1,3-dihydropyrrolo[3,4-c]pyridine-2-carboxamide] reads 1.9 nM.
On the same count and under the same terms, the result for `CN1CCN(c2ccc(C(=O)N3CCC4(CC3)CC4CNC(=O)c3cc4cnccc4[nH]3)cc2)CC1` (stereo not shown) [Example 363, N-[[6-[4-(4-methylpiperazin-1-yl)benzoyl]-6-azaspiro[2.5]octan-2-yl]methyl]-1H-pyrrolo[3,2-c]pyridine-2-carboxamide] reads 11.4 nM.
As for `CC1(C)CC1C(=O)N1CCC2(CC1)CC2CNC(=O)c1cc2cnccc2[nH]1` (stereo not shown) [Example 364, N-[[6-(2,2-dimethylcyclopropanecarbonyl)-6-azaspiro[2.5]octan-2-yl]methyl]-1H-pyrrolo[3,2-c]pyridine-2-carboxamide], the IC50 was found to be 110 nM.
For the compound `O=C(NCC1CC12CCN(C(=O)c1cc(C3CC3)n[nH]1)CC2)c1cc2cnccc2[nH]1` (stereo not shown) [Example 368, N-[[6-(3-cyclopropyl-1H-pyrazole-5-carbonyl)-6-azaspiro[2.5]octan-2-yl]methyl]-1H-pyrrolo[3,2-c]pyridine-2-carboxamide], the IC50 (Homo sapiens, A2780, 72 h) worked out at 991 nM.
As to `Cn1cc(-c2ccno2)c(C(=O)N2CCC3(CC2)CC3CNC(=O)c2cc3cnccc3[nH]2)n1` (stereo not shown) [Example 369, N-[[6-(4-isoxazol-5-yl-1-methyl-pyrazole-3-carbonyl)-6-azaspiro[2.5]octan-2-yl]methyl]-1H-pyrrolo[3,2-c]pyridine-2-carboxamide], the IC50 (Homo sapiens, A2780, 72 h) turned out to be 93.3 nM.
Same read-out and setting: the result for `Cc1nc(C)c(C(=O)N2CCC3(CC2)CC3CNC(=O)c2cc3cnccc3[nH]2)o1` (stereo not shown) [Example 370, N-[[6-(2,4-dimethyloxazole-5-carbonyl)-6-azaspiro[2.5]octan-2-yl]methyl]-1H-pyrrolo[3,2-c]pyridine 2-carboxamide] reads 115 nM; that for `CC1(C)CC1C(=O)N1CCC2(CC1)CC2CNC(=O)c1cc2ccncc2o1` (stereo not shown) [Example 371, N-[[6-(2,2-dimethylcyclopropanecarbonyl)-6-azaspiro[2.5]octan-2-yl]methyl]furo[2,3-c]pyridine-2-carboxamide], 30.2 nM.
For the compound `CN1CCN(C(=O)c2ccc(C(=O)N3CCC4(CC3)CC4CNC(=O)N3Cc4ccncc4C3)cc2)CC1` (stereo not shown) [Example 372, N-[[6-[4-(4-methylpiperazine-1-carbonyl)benzoyl]-6-azaspiro[2.5]octan-2-yl]methyl]-1,3-dihydropyrrolo[3,4-c]pyridine-2-carboxamide], for the setting “Homo sapiens, A2780, 72 h”, the IC50 amounted to 27.5 nM.
For the compound `CC1(OC(=O)N2CCC3(CC2)CC3CNC(=O)N2Cc3ccncc3C2)CCOC1` (stereo not shown) [Example 375, (3-methyltetrahydrofuran-3-yl) 2-[(1,3-dihydropyrrolo[3,4-c]pyridine-2-carbonylamino)methyl]-6-azaspiro[2.5]octane-6-carboxylate], the IC50 (Homo sapiens, A2780, 72 h) was 1.11 nM.
The same measure, in the same setting: the value for `CC(C)(O)COC(=O)N1CCC2(CC1)CC2CNC(=O)N1Cc2ccncc2C1` (stereo not shown) [Example 376, (2-hydroxy-2-methyl-propyl) 2-[(1,3-dihydropyrrolo[3,4-c]pyridine-2-carbonylamino)methyl]-6-azaspiro[2.5]octane-6-carboxylate] was 16.1 nM; that for `CC(C)(C)CS(=O)(=O)N1CCC2(CC1)CC2CNC(=O)c1cc2ccncc2o1` (stereo not shown) [Example 378, N-[[6-(2,2-dimethylpropylsulfonyl)-6-azaspiro[2.5]octan-2-yl]methyl]furo[2,3-c]pyridine-2-carboxamide] was 2000 nM; that for `CC(C)(C)CS(=O)(=O)N1CCC2(CC1)CC2CNC(=O)c1cc2cnccc2[nH]1` (stereo not shown) [Example 379, N-[[6-(2,2-dimethylpropylsulfonyl)-6-azaspiro[2.5]octan-2-yl]methyl]-1H-pyrrolo[3,2-c]pyridine-2-carboxamide] was 2000 nM.
For `Cc1nc(C)c(C(=O)N2CCC3(CC2)CC3CNC(=O)c2cc3ccncc3o2)o1` (stereo not shown) [Example 385, N-[[6-(2,4-dimethyloxazole-5-carbonyl)-6-azaspiro[2.5]octan-2-yl]methyl]furo[2,3-c]pyridine-2-carboxamide], the IC50 is 17.1 nM.
`CC(C)(O)COCC(=O)N1CCC2(CC1)CC2CNC(=O)c1cc2cnccc2[nH]1` (stereo not shown) [Example 387, N-[[6-[2-(2-hydroxy-2-methyl-propoxy)acetyl]-6-azaspiro[2.5]octan-2-yl]methyl]-1H-pyrrolo[3,2-c]pyridine-2-carboxamide]: under “Homo sapiens, A2780, 72 h”, the IC50 is 535 nM.
